This note sets out measurements from paper PMC2770570 (BMC Cancer, 2009).

Holding throughout (type): cell-based, human
One series concerns OGFr mRNA. Put plainly: Northern blot analysis of OGFr after siRNA transfection of KAT-18 cells. As to conditions: 20 nM siRNA; OGFr/GAPDH ratio by densitometry (Fig. 4A). As for the experimental part: (§1) The OGFr-targeted siRNAs (antisense:5'-[…]-3'; sense: 5'-[…]-3') were designed and obtained as ready-annealed, purified duplex probes from Ambion (Austin, TX). For transfection, 5 × 10^4 KAT-18 cells per well were seeded in 6-well plates containing 1 ml of serum-containing media without antibiotics. In each well, 20 nM OGFr-siRNA or control siRNA solutions in serum-free media were added. […] At 72 h cells were collected for computing growth. Two independent experiments were conducted. The scrambled siRNAs were purchased from Ambion.
Some cultures were transfected with siRNAs and then harvested 72 h later for Northern analysis. Total RNA was extracted using the Paris Kit (Ambion), separated on an agarose gel, and mRNA transferred to nylon membrane (Immobilon, Bio-Rad Laboratories, Hercules, CA). Membranes were probed with ^32P-dCTP- OGFr cDNA. To determine equal loading, blots were stripped and reprobed with radiolabeled GAPDH and optical density of each band was determined by densitometry and analyzed by QuickOne (Bio-Rad Laboratories). Each value was normalized to GAPDH from the same blot.

The test system of the next series is OGFr protein. Nature of the series: Semi-quantitative immunocytochemistry of OGFr protein after siRNA transfection of KAT-18 cells. The conditions noted are these: 72 h after transfection; mean staining intensity, approximately 50 cells/group (Fig. 4B). The protocol: as §1
KAT-18 cells were seeded onto coverglasses, transiently transfected with OGFr-siRNA, and 72 h later stained with polyclonal antibodies to OGFr in order to detect the level of protein knockdown. OGFr protein levels were assessed by semi-quantitative immunocytochemistry whereby images were taken at the same exposure time with special care not to photobleach samples. The mean intensity of staining was determined for approximately 50 cells/group.

The subject of the next series is KAT-18 cells. Put plainly: Growth of KAT-18 cells transfected with OGFr siRNA or scrambled siRNA. As for the experimental part: as §1

For “antisense:5'-uagaaacucagguuuggcg-3'; sense: 5'-cgccaaaccugaguuucua-3' (sense CGCCAAACCUGAGUUUCUA; antisense UAGAAACUCAGGUUUGGCG; chemistry not fully specified) [OGFr siRNA, OGFr-targeted siRNAs, ready-annealed, purified duplex probes from Ambion]”, in the series with OGFr mRNA, the “OGFr level relative to cells treated with vehicle only” value is “less than 25%”. Moreover, the “decrease in OGFr protein expression relative to untransfected and scrambled siRNA cells” value in the series with OGFr protein is 47%. In addition, the “increase in cell number vs vehicle only and scrambled siRNA” value in the series on KAT-18 cells (20 nM siRNA, 72 h (Fig. 4C)) is given as “approximately 70%”. The “effectiveness of OGFr siRNA knockdown in increasing cell number relative to NTX” value in the series on KAT-18 cells (KAT-18 cells) is recorded as “over twice as effective”.
